The record followed here is patent publication US20240226041A1, “METHODS AND COMPOSITIONS FOR TREATMENT OF NEUROPATHIC PAIN USING STAT3 INHIBITORS” (priority 2021, published 2024).

“Also recorded” adds a separate entry of the source.

One assay concerns C57BL/6 mice. The assay is described as follows: Example 3: mouse SNI model, pain behavior, barrier function, leukocyte infiltration, inflammatory mediators. The format is in vivo. The procedure:
SNI surgery is carried out in C57BL/6 mice as previously described. Analgesia is limited to perioperative administration of buprenorphine SR (0.05 mg/kg SQ). […] Animals then are examined for behavioral pain sensitivity. Plantar mechanical sensitivity is assessed using hind paw stimulation with von Frey filaments. Frequency of hindlimb withdrawal in response to application of filaments of increasing force is used as a readout of mechanical sensitivity. Plantar cold sensitivity is tested using the plantar cold assay, in which hindpaw withdrawal in response to a cooling source is used as a readout of cold sensitivity. Testing is carried out after habituation at baseline (prior to surgery), then once weekly for 8 weeks following surgery. Daily testing of von Frey and cold sensitivity is carried out during the TTI-101 treatment window. Additional behavioral testing occurs weekly to more extensively validate analgesic efficacy and functional recovery. The mechanical conflict-avoidance (MCA) test uses a chamber of blunt probes to measure aversion to hindpaw mechanical stimuli and serves as an additional assessment of mechanical sensitivity. Plantar cold sensitivity is measured using the thermal gradient ring assay, which uses a temperature gradient to measure temperature preference/aversion. Finally, paw placement and other gait parameters are assessed using digital gait analysis (Catwalk XT) and a burrowing activity assay (spontaneous clearing of bedding material from a tube). […] All experiments are performed by observers blinded to the genotype and drug formulation administered. This additional behavioral testing is done from baseline (8 weeks)—prior to nerve injury—then weekly thereafter until 16 weeks of age. Mice are euthanized humanely by cardiac puncture and necropsy performed to remove the contralateral and ipsilateral sciatic nerves (SN) and dorsal root ganglia (DRG). […] Anticoagulated blood at both time points is used to measure levels of pro- and anti-inflammatory cytokines, including IL-4, IL-6, IL-10, IL-13, TGF-β and IFN-γ by Luminex. One portion of each SN and DRG is snap-frozen and another portion placed in formalin, then paraffin imbedded (FFPE). Cryotome sections of snap-frozen tissues are used to generate protein lysates for measurement of pY-STAT3, IL-1B and IL-6 by Luminex and Western blotting. […] Snap-frozen tissues are processed to isolate RNA for RNA sequencing (RNA-seq) analysis. Microtome sections of FFPE blocks are H&E stained and undergo immunohistochemistry staining and scoring for pY-STAT3, CD68 (macrophages), PGP9.5 (sensory nerves) and GAP43 (regenerating nerves). Detection of oxidative stress in sciatic nerve and DRG via IHC for nitrotyrosine, 4-hydroxynonenal and MnSOD is carried out. Vascular endothelium permeability in nerve is determined by quantifying the extravasation of the fluorescent dye sodium fluorescein. Cross-sections of the nerve are quantified using the EVOS fluorescence microscope, and mean fluorescence intensity and the percent area positive are determined using NIH ImageJ software. In a subset of mice, characterization of SN and DRG macrophage phenotype are analyzed using flow cytometry with conjugated antibodies against CD86, F4/80, CD163 and CD206.

The next assay has as its system mice. The assay is described as follows: Example 6: mouse chronic constriction injury (CCI) model. The format is in vivo. The procedure:
CCI surgery is carried out in mice. Analgesia is limited to perioperative administration of buprenorphine SR (0.05 mg/kg SQ). […] Animals then are examined for behavioral pain sensitivity. All experiments are performed by observers blinded to the drug formulation administered. This is done from baseline (8 weeks)—prior to nerve injury—then weekly thereafter until 16 weeks of age. […] Anticoagulated blood is used to measure levels of pro- and anti-inflammatory cytokines. One portion of each SN and DRG is snap-frozen and another portion placed in formalin, then paraffin imbedded (FFPE). Cryotome sections of the snap-frozen tissue are used to generate protein lysates for measurement of pY-STAT3, IL-1B, and IL-6 by Luminex, and RNA for RNA-seq analysis. […] Microtome sections of FFPE blocks are H&E stained and undergo immunohistochemistry staining and scoring for pY-STAT3, CD68 (macrophages), PGP9.5 (sensory nerves) and GAP43 (regenerating nerves). Detection of oxidative stress in sciatic nerve and DRG via IHC for nitrotyrosine or 4-hydroxynonenal adducts and MnSOD is carried out. In a subset of mice, characterization of SN and DRG macrophage phenotype is analyzed using flow cytometry with conjugated antibodies against CD86, F4/80, CD163 and CD206.

The test system of assay [1] is male and female C57BL/6j mice. Description: Spared nerve injury (SNI) model, von Frey mechanical allodynia. The format is in vivo, mouse. The procedure: Data are shown as mean±SEM and were analyzed using two-way ANOVA followed by Sidak's post-hoc test. *P<0.05. […] Data are from 4 vehicle-treated and 5 TTI-101-treated male mice per group). Two-way ANOVA followed by Sidak's post-hoc test: P<0.05.
SNI induced profound mechanical allodynia in male and female mice.
Spared nerve injury (SNI). SNI surgery was performed on male and female C57BL/6j mice (8 weeks old; Jackson Laboratories), as described (Singhmar et al., 2020). The sural, common peroneal and tibial branches of the sciatic nerve of the left hind paw were exposed under isoflurane anesthesia. A silk suture was used to ligate the common peroneal and tibial branches and 2-4 mm of the distal ends were removed. The sural nerve was left intact. Mice received buprenorphine right before and 1 hour after surgery. […] Mechanical sensitivity was monitored over time using von Frey hairs.

Where [2] appears, read: 100 mg/kg oral gavage daily for 5 days.

For the compound `COc1ccc(S(=O)(=O)Nc2cc(-c3c(O)ccc4ccccc34)c(O)c3ccccc23)cc1` [TTI-101], in the assay with C57BL/6 mice (setting [2]), the “antalgic gait patterns/burrowing aversion” value is reported as “net reduction”; the “macrophage infiltration of SN and DRG” value is given as “net reduction”; the “mechanical and cold hypersensitivity” value is listed as “net reduction”; the “plasma and tissue levels / pY-STAT3 in macrophages in SN and DRG” value was “achieves levels in the plasma and tissue adequate to reduce levels of pY-STAT3”. For the same compound, the RNA-seq gene signatures entry in the assay with C57BL/6 mice (SN and DRG) is “shifts RNA-seq gene signatures toward a net promotion of M2-like macrophage polarization, improved tight junction/barrier formation, reduced ROS production, and circulating pro-inflammatory markers”. Besides, in the assay on mice (setting [2]), the “antalgic gait patterns/burrowing aversion” value is listed as “net reduction”; the “macrophage infiltration of the sciatic nerve” value is reported as “net reduction”; the “mechanical and thermal hypersensitivity” value is listed as “net reduction”; the “plasma and tissue levels / pY-STAT3 in macrophages in SN and DRG” value was “achieves levels in the plasma and tissue adequate to reduce levels of pY-STAT3”. The “pain hyper-sensitivity at 8 weeks post-CCI” value in the assay on mice (8 weeks post-CCI) is reported as “sustained reversal”. Moreover, in assay [1] (50 mg/kg oral gavage from day 10 after SNI, male and female mice), the “SNI-induced mechanical allodynia, administration” value is recorded as “reduced mechanical allodynia”. Moreover, the “SNI-induced mechanical allodynia, repeated dosing” value in assay [1] (50 mg/kg oral gavage, 6 doses every other day from day 10 after SNI, male and female mice) is “complete reversal; also recorded: reverses SNI-induced allodynia”. Moreover, the “mechanical allodynia at 31 and 52 days after start of treatment” value in assay [1] (19 and 40 days after the last dose, male mice) was “no signs of mechanical allodynia”. For the same compound, in assay [1] (after start of treatment, male mice), the “day until which beneficial effect was sustained” value is 52 days. Besides, the “time after the last dose for which beneficial effect was sustained” value in assay [1] (male mice) amounted to 40 days.
